Reference: patent US7964731B2, “Isotopically marked quinoline derivatives as adenosin A3 receptor ligands” (Sanofi-Aventis, priority 2004, dated 2011)

Legend:
[1] = biological target: T1, human adenosine A3 receptor (CHO-hA3 membrane preparation) (Homo sapiens, UniProt P0DMS8); experiment: Scatchard analysis of radioisotope saturation curves of the radioligand of Example 2/a; assay type: binding
T1 sequence (P0DMS8 1-318): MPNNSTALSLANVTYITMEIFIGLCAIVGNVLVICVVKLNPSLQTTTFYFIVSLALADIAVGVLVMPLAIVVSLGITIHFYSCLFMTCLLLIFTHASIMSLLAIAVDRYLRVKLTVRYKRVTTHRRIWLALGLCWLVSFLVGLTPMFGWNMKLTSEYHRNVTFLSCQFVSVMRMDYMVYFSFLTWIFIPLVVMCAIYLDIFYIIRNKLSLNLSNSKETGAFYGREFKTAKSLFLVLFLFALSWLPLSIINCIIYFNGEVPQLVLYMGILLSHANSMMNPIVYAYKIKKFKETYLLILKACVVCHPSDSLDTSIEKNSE
Method: (§1) Preparing membrane suspension: collect ovarium cells of cloned Chinese hamster expressing human A3 receptors (further: CHO-hA3), wash them three times with PBS, centrifuge (1000×g 10 min.) and homogenize (B.Braun Potter S) at 1500/min rotation speed. Buffer: 50 mM Tris, 10 mM MgCl2, 1 mM EDTA, pH 8.0. Centrifuge this homogenized mixture (43.000 g, 10 min), suspense the pellet in the above buffer with adjustment of the protein concentration to 0.1 mg/mL (Bradford method) and complete with 2 U/mL ADA.
Incubate the CHO-hA3 membrane preparation (protein content 4 μg) in the presence of the test compound and 0.5 nM of the compound containing radioactive iodine (100.000 cpm), described in Example 2/a, in incubation buffer (50 mM Tris, pH 8.0, 10 mM MgCl2, 1 mM EDTA, 0.08% CHAPS, 0.5% BSA, 2 U/mL adenosine deaminase). […] Keep the isotop preparation and the reaction mixture in polyethylene tube to decrease adsorption. […] Detection of radioactivity: in gamma-counter (1470 Wizard, Wallac). […]
On the basis of radioisotop saturation curves, by Scatchard analysis (G. Scatchard, Ann. N. Y. Acad. Sci. 51:660, 1949) the dissociation constant (KD) of the new radioligand of Example 2/a on CHO-hA3 membrane preparation is determined.

[2] = biological target: T2, human A2b adenosine receptors transfected into HEK-293 cells (Homo sapiens, UniProt P29275); experiment: Human adenosine A2b receptor binding, [3H]DPCPX; conditions: 1 μM test compound, radioligand [3H]DPCPX; read-out: Inhibition in 1 μM hA2B [3H]DPCPX
T2 construct: purchased Receptor Biology, Inc; host or cells: HEK-293 cells (transfected), membranes
T2 sequence (P29275 1-332): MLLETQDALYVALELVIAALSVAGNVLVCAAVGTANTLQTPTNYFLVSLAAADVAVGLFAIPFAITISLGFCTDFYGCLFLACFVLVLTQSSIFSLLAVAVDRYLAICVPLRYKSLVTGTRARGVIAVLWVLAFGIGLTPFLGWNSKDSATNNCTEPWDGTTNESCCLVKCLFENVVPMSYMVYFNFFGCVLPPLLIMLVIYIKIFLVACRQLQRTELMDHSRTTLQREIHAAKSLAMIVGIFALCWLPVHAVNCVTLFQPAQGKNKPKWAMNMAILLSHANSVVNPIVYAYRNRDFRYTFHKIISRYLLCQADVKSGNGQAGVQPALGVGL
Method: Human Adenosine A2b Receptor Binding
Binding protocol: incubate 20.8 μg of membranes (human A2b adenosine receptors transfected into HEK-293 cells, source: Receptor Biology, Inc.), in the presence of the test compound and 32.4 nM [^3H]DPCPX (8-cyclopenthyl-1,3-dipropylxanthine) (800.000 dpm) in incubation buffer (50 mM Tris-HCl, 10 mM MgCl2, 1 mM EDTA, 0.1 mM benzamidine, 2 U/mL adenosine deaminase, pH 6.5). The non-specific binding is defined in the presence of 100 μM NECA (5′-N-ethylcarboxamido-adenosine) in a total volume of 100 μL for 30 min at room temperature. Filter under 25 Hgmm vacuum over Whatman GF/C glass fibre filters (presoaked in 0.5% polyethylimine for 3 hours), wash 4× with 1 mL ice-cold 50 mM Tris HCl (pH 6.5) on 96-well Brandel Cell Harvester. Detection of activity: in beta-counter (1450 Microbeta, Wallac) in the presence of 200 μL of HiSafe-3 cocktail. Inhibition [%]=100−((activity in the presence of test compound−non-specific activity)/(total activity−non-specific activity))*100

[3] = biological target: T3, human A1 receptors (CHO-hA1 membrane preparation) (Homo sapiens, UniProt P30542); experiment: Human adenosine A1 receptor binding, [3H]CCPA; conditions: 1 μM test compound, radioligand [3H]CCPA
T3 sequence (P30542 1-326): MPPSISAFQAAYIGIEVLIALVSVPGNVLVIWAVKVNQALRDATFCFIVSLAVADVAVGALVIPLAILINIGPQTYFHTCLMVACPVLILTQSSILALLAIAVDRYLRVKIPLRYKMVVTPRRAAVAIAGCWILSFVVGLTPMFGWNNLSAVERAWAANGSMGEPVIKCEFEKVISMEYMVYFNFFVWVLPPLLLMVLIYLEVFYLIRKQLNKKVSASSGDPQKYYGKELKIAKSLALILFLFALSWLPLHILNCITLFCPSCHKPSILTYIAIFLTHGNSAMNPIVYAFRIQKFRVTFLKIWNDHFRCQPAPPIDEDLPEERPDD
Method: Preparing membrane suspension: collect ovarium cells of cloned Chinese hamster expressing human A1 receptors (further: CHO-hA1), wash them three times with PBS, centrifuge (1000×g 10 min.) and homogenize (B.Braun Potter S) at 1500/min rotation speed. Buffer: 50 mM Tris HCl, pH 7,4. Centrifuge this homogenized mixture (43.000 g, 10 min), suspense the pellet in the above buffer with adjustment of the protein concentration to 5 mg/mL (Bradford method) and complete with 2 U/mL ADA. […] Filter over Whatman GF/B glass fibre filters (presoaked in 0.5% polyethylimine for 3 hours), wash 4× with 1 mL ice-cold 50 mM Tris HCl (pH 7.4) on 96-well Brandel Cell Harvester. Detection of activity: in 96-well plate in the presence of HiSafe-3 cocktail in beta-counter (1450 Microbeta, Wallac). Inhibition [%]=100−((activity in the presence of test compound−non-specific activity)/(total activity−non-specific activity))*100

[4] = biological target: T4, human A3 receptors (CHO-hA3 membrane preparation) (Homo sapiens, UniProt P0DMS8); experiment: Human adenosine A3 receptor binding in the presence of the radioactive iodine-containing compound of Example 2/a; conditions: radioligand of Example 2/a, 4 μg CHO-hA3 preparation, Cheng-Prusoff from IC50; read-out: Ki, the radioligand given in Example 2/a
T4 sequence (P0DMS8 1-318): T1 sequence (P0DMS8 1-318)
Method: as §1
Receptor Binding in the Presence of the Radioactive Iodine-Containing Compound of Example 2/a:
Incubate the CHO-hA3 membrane preparation (protein content 4 μg) in the presence of the test compound and 0.5 nM of the compound containing radioactive iodine (100.000 cpm), described in Example 2/a, in incubation buffer (50 mM Tris, pH 8.0, 10 mM MgCl2, 1 mM EDTA, 0.08% CHAPS, 0.5% BSA, 2 U/mL adenosine deaminase). […] Detection of radioactivity: in gamma-counter (1470 Wizard, Wallac). […]
Knowing the KD values, by the Cheng-Prusoff equation (Y. J. Cheng and W. H. Prusoff, Biochem. Pharmacol. 22:3099, 1973) the Ki constants of the investigated reference compounds and that of the starting compound of Example 2/b (i.e. of the un-labeled analogue of the new radioligand of Example 2/a) were calculated on the basis of the IC50 values.

[5] = biological target: T4, human A3 receptors (CHO-hA3 membrane preparation); experiment: Human adenosine A3 receptor binding in the presence of [125I]AB-MECA
Method: Human Adenosine A3 Receptor Binding
as §1
Receptor Binding in the Presence of [^125I]AB-MECA:
Incubate the CHO-hA3 membrane preparation (protein content 2 μg) in the presence of the test compound and 0.5 nM [^125I]AB-MECA (4-amino-3-iodo-benzyl-5′-N-methylcarboxamide-adenosine) (100.000 cpm) in incubation buffer (50 mM Tris, 10 mM MgCl2, 1 mM EDTA, 2 U/mL adenosine deaminase, pH 8.0). […] Filter under 25 Hgmm vacuum over Whatman GF/C glass fibre filters (presoaked in 0.5% polyethylimine for 3 hours), wash 4× with 1 mL ice-cold buffer (50 mM Tris, 10 mM MgCl2, 1 mM EDTA, pH 8) on 96-well Brandel Cell Harvester. Detection of radioactivity: in gamma-counter (1470 Wizard, Wallac). Inhibition [%]=100−((activity in the presence of test compound−non-specific activity)/(total activity−non-specific activity))*100.

[6] = biological target: T5, human A2a adenosine receptors transfected into HEK-293 cells (Homo sapiens, UniProt P29274); experiment: Human adenosine A2a receptor binding, [3H]CGS-21680; conditions: 1 μM test compound, radioligand [3H]CGS21680; read-out: Inhibition in 1 μM hA2A [3H]CGS21680
T5 construct: purchased Receptor Biology, Inc; host or cells: HEK-293 cells (transfected), membranes
Method: Human Adenosine A2a Receptor Binding
Incubate 7 μg of membranes (human A2, adenosine receptors transfected into HEK-293 cells, source: Receptor Biology, Inc.), in the presence of the test compound and 20 nM [^3H]CGS-21680 (2-[p-(2-carbonylethyl)phenylethylamino]-5′-N-ethylcarboxamido-adenosine) (200.000 dpm) in incubation buffer (50 mM Tris HCl, 10 mM MgCl2, 1 mM EDTA, 2 U/mL adenosine deaminase, pH 7.4). The non-specific binding is defined in the presence of […] NECA (5′-N-ethylcarboxamido-adenosine) in a total volume of 100 μl for 90 min at room temperature. Filter in vacuum over Whatman GF/B glass fibre filters (presoaked for 3 hours in 0.5% polyethylimine), wash 4× with 1 mL ice-cold buffer (50 mM Tris HCl, 10 mM MgCl2, 1 mM EDTA, 0.9% NaCl, pH 7.4) on 96-well Brandel Cell Harvester. Detection of activity: in beta-counter (1450 Microbeta, Wallac) in the presence of 200 μL HiSafe-3 cocktail. Inhibition [%]=100−((activity in the presence of test compound−non-specific activity)/(total activity−non-specific activity))*100.

T5 sequence (P29274 whole entry): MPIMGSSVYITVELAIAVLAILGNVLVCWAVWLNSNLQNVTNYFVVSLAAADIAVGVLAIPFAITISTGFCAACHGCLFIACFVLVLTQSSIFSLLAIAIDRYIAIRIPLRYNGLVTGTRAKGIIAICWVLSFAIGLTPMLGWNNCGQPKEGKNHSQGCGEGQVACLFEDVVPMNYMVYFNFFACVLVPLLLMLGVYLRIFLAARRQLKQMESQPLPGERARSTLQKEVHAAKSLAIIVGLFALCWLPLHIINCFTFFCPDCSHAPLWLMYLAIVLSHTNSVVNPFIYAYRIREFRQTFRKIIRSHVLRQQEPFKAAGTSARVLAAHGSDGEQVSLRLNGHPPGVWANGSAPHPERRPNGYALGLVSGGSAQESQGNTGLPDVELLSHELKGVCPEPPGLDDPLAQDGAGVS

Row | Structure (SMILES) | Kd ([1]; 0.156 nM-10 nM radioligand, 4 μg protein CHO-hA3, read-out: dissociation constant (KD)) [nM] | maximal binding capacity ([1]; 4 μg protein CHO-hA3) [femtomol/1 mg protein] | inhibition at 1 µM [2] [%] | inhibition at 1 µM [3] [%] | Ki [4] [nM] | selectivity for adenosine A3 receptor compared to the other adenosine receptor sub-types ([5]; A3 versus A1, A2a, A2b) | Ki ([5]; radioligand [125I]AB-MECA, CHO-hA3 membranes) [nM] | inhibition at 1 µM [6] [%]
1 | COc1ccc(C(=O)Nc2nc3ccc([125I])cc3c(NCc3cccs3)c2C#N)cc1 [Example 2/a, 4-Methoxy-N-(6-[^125I]iodo-4-[2-thienylmethylamino]-3-cyanoquinolin-2-yl)benzamide] | 4 | 985 |  |  |  |  |  | 
2 | COc1ccc(C(=O)Nc2nc3ccc(I)cc3c(NCc3cccs3)c2C#N)cc1 [The starting compound of Example 2/b, 4-Methoxy-N-(6-iodo-4-[2-thienylmethylamino]-3-cyanoquinolin-2-yl)benzamide] |  |  | -16 | 4 | 1.3 | at least thousand-fold selectivity | 1.5 | 29
